Measured values reported in ChEMBL document CHEMBL5380831, “Azolylpyrimidinediols as Novel Structural Scaffolds of DNA-Groove Binders against Intractable Acinetobacter baumannii” (J Med Chem, 2023).
≈ marks a conversion by molar mass, not a printed value. Calls of active or inactive are those of the source. The rule behind the calls is not given here.

Legend:
Staphylococcus aureus = assay: Antibacterial activity against Staphylococcus aureus ATCC 29213 assessed as bacterial growth inhibition incubated for 24 hrs by broth microdilution method; type: functional
Pseudomonas aeruginosa = assay: Antibacterial activity against Pseudomonas aeruginosa ATCC 27853 assessed as bacterial growth inhibition incubated for 24 hrs by broth microdilution method; type: functional
[1] = Cytotoxicity against HEK293T cells assessed as cell viability at 0.256 mmol/L measured after 24 hrs by MTT assay relative to control; type: toxicity, cell-based, HEK-293T; details: human, read-out: Activity
Cell membrane [2] = assay: Induction of outer membrane damage in Acinetobacter baumannii at 1 to 8 times MIC incubated for 30 mins by fluorescence based assay
Cell membrane [3] = assay: Induction of inner membrane damage in Acinetobacter baumannii at 1 to 8 times MIC incubated for 30 mins by fluorescence based assay
Calf thymus DNA [4] = assay: Binding affinity to calf thymus DNA assessed as compound-DNA complex formation by absorbance based assay; type: nucleic-acid assay; details: Bos taurus
Calf thymus DNA [5] = assay: Induction of calf thymus DNA cleavage at 0.05 mmol/L incubated for 6 hrs in presence of Cu(NO3)2 by agarose gel electrophoresis method; type: nucleic-acid assay; details: Bos taurus
Calf thymus DNA [6] = assay: Induction of calf thymus DNA cleavage at 0.05 mmol/L incubated for 6 hrs in presence of Zn2+ by agarose gel electrophoresis method; type: nucleic-acid assay; details: Bos taurus
[7] = Tmax in Kunming mouse at 10 mg/kg, iv measured upto 24 hrs by LC-MS analysis; type: ADME, organism-based; details: in vivo
[8] = Volume of distribution at steady state in Kunming mouse at 10 mg/kg, iv measured upto 24 hrs by LC-MS analysis; type: ADME, organism-based; details: in vivo, read-out: Vdss
[9] = MRT (0 to t) in Kunming mouse at 10 mg/kg, iv measured upto 24 hrs by LC-MS analysis; type: ADME, organism-based; details: in vivo
[10] = Tmax in Kunming mouse at 10 mg/kg, po measured upto 24 hrs by LC-MS analysis; type: ADME, organism-based; details: in vivo
[11] = Clearance in Kunming mouse at 10 mg/kg, po measured upto 24 hrs by LC-MS analysis; type: ADME, organism-based; details: in vivo

SMILES: OCCN(CCO)c1nccc(-n2cncn2)n1
- MIC (Staphylococcus aureus): 1020 µM (≈ 256 µg/mL)
- MIC (Pseudomonas aeruginosa): 512 µM (≈ 128 µg/mL)
- viability at 24 h, 256 µM [1]: 80%
- Activity (Cell membrane [2]): inactive
- Activity (Cell membrane [3]): inactive
- Activity (Calf thymus DNA [4]): Active
- Activity (Calf thymus DNA [5]): inactive
- Activity (Calf thymus DNA [6]): inactive
- Tmax [7]: 1.98 min
- Vd [8]: 2.1 L/kg
- MRT last at 24 h [9]: 2.61 h
- Tmax [10]: 34.8 min
- CL/F [11]: 20.7 mL/min/kg
